Reference: patent publication US9120805B2, “Substituted pyrrolo[1,2-A]pyrazin-1-ones and pyrazolo[1,5-A]pyrazin-4-ones as inhibitors of tankyrase and poly(ADP-ribose)polymerase activity” (Merck Patent GmbH, priority 2012, dated 2015)

What was measured:
[1] = biological target: T1, His-tagged Parp-1 (Homo sapiens, UniProt P09874); test: PARP-1 autoparsylation assay (HTRF); type: biochemical; conditions: PARP-1 autoparsylation HTRF assay
T1 construct: purchased Enzo Life Sciences GmbH
Excerpt: Description of the PARP1 Assay
Biochemical Activity Testing of PARP-1: Autoparsylation Assay
The autoparsylation assay is run in two steps: the enzymatic reaction in which
His-tagged Parp-1 transfers biotinylated ADP-ribose/ADP-ribose to itself from biotinylated NAD/NAD as co-substrate and the detection reaction where a time resolved FRET between cryptate labelled anti-His antibody bound to the His tag of the enzyme and Xlent® labelled-streptavidin bound the biotin-parsylation residue is analysed. The autoparsylation activity is detectable directly via the increase in HTRF signal.
The autoparsylation assay is performed as 384-well HTRF® (Cisbio, Codolet, France) assay format in Greiner low volume nb 384-well microtiter plates. 35 nM His-tagged Parp-1 (human, recombinant, Enzo Life Sciences GmbH, Lörrach, Germany) and a mixture of 125 nM bio-NAD (Biolog, Life science Inst., Bremen, Germany) and 800 nM NAD as co-substrate are incubated in a total volume of 6 μl (100 mM Tris/HCl, 4 mM Mg-chloride, 0.01% IGEPAL® CA630, 1 mM DTT, 0.5% DMSO, pH 8, 13 ng/μl activated DNA (BPS Bioscience, San Diego, US)) in the absence or presence of the test compound (10 dilution concentrations) for 150 min at 23° C. The reaction is stopped by the addition of 4 μl of the Stop/detection solution (70 nM SA-Xlent® (Cisbio, Codolet, France), 2.5 nM Anti-His-K® (Eu-labelled anti-His, Cisbio, Codolet, France) in 50 mM HEPES, 400 mM KF, 0.1% BSA, 20 mM EDTA, pH 7.0). After 1 h incubation at room temperature the HTRF is measured with an Envision multimode reader (Perkin Elmer LAS Germany GmbH) at excitation wavelength 340 nm (laser mode) and emission wavelengths 615 nm and 665 nm. The ratio of the emission signals is determined. The full value used is the inhibitor-free reaction. The pharmacological zero value used is Olaparib (LClabs, Woburn, US) in a final concentration of 1 μM. The inhibitory values (IC50) are determined using either the program Symyx Assay Explorer® or Condosseo® from GeneData.

[2] = biological target: T2, GST-tagged Tnks-2 (873-1166 aa) (Homo sapiens, UniProt Q9H2K2); test: TNKS2 activity ELISA (autoparsylation assay); type: biochemical
T2 construct: GST-tagged Tnks-2 (873-1166 aa, prepared in-house); made in house
Description: Description of the TNKS1 and TNKS2 ELISA Assay
Biochemical Activity Testing of TNKS 1 and 2: Activity ELISA (Autoparsylation Assay)
For analysis of autoparsylation activity of TNKS 1 and 2 an activity ELISA is performed: In the first step GST tagged TNKS is captured on a Glutathione coated plate. Then the activity assay with biotinylated NAD is performed in the absence/presence of the compounds. During the enzymatic reaction GST tagged TNKS transfers biotinylated ADP-ribose to itself from biotinylated NAD as co-substrate. For the detection streptavidin-HRP conjugate is added that binds to the biotinylated TNKS and is thereby captured to the plates. The amount of biotinylated resp. autoparsylated TNKS is detected with a luminescence substrate for HRP. The level of the luminescence signal correlates directly with the amount of autoparsylated TNKS and therefore with activity of TNKS.
The activity ELISA is performed in 384 well Glutathione coated microtiter plates (Express capture Glutathione coated plate, Biocat, Heidelberg, Germany). The plates are pre-equilibrated with PBS. Then the plates are incubated with 50 μl 20 ng/well GST-tagged Tnks-1 (1023-1327 aa, prepared in-house), respectively GST-tagged Tnks-2 (873-1166 aa, prepared in-house) in assay buffer (50 mM HEPES, 4 mM Mg-chloride, 0.05% Pluronic F-68, 2 mM DTT, pH 7.7) overnight at 4° C. The plates are washed 3 times with PBS-Tween-20. The wells are blocked by incubation at room temperature for 20 minutes with 50 μl blocking buffer (PBS, 0.05% Tween-20, 0.5% BSA). Afterwards the plates are washed 3 times with PBS-Tween-20. The enzymatic reaction is performed in 50 μl reaction solution (50 mM HEPES, 4 mM Mg-chloride, 0.05% Pluronic F-68, 1.4 mM DTT, 0.5% DMSO, pH 7.7) with 10 μM bio-NAD (Biolog, Life science Inst., Bremen, Germany) as co-substrate in the absence or presence of the test compound (10 dilution concentrations) for 1 hour at 30° C. The reaction is stopped by 3 times washing with PBS-Tween-20. For the detection 50 μl of 20 ng/μl Streptavidin, HRP conjugate (MoBiTec, Göttingen, Germany) in PBS/0.05% Tween-20/0.01% BSA are added and the plates are incubated for 30 minutes at room temperature. After three times washing with PBS-Tween-20 50 μl of SuperSignal ELISA Femto Maximum sensitivity substrate solution (ThermoFisherScientific (Pierce), Bonn, Germany) are added. Following a 1 minute incubation at room temperature luminescence signals are measured with an Envision multimode reader (Perkin Elmer LAS Germany GmbH) at 700 nm. The full value used is the inhibitor-free reaction. The pharmacological zero value used is XAV-939 (Tocris) in a final concentration of 5 μM. The inhibitory values (1050) are determined using either the program Symyx Assay Explorer® or Condosseo® from GeneData.

T1 sequence (P09874 whole entry): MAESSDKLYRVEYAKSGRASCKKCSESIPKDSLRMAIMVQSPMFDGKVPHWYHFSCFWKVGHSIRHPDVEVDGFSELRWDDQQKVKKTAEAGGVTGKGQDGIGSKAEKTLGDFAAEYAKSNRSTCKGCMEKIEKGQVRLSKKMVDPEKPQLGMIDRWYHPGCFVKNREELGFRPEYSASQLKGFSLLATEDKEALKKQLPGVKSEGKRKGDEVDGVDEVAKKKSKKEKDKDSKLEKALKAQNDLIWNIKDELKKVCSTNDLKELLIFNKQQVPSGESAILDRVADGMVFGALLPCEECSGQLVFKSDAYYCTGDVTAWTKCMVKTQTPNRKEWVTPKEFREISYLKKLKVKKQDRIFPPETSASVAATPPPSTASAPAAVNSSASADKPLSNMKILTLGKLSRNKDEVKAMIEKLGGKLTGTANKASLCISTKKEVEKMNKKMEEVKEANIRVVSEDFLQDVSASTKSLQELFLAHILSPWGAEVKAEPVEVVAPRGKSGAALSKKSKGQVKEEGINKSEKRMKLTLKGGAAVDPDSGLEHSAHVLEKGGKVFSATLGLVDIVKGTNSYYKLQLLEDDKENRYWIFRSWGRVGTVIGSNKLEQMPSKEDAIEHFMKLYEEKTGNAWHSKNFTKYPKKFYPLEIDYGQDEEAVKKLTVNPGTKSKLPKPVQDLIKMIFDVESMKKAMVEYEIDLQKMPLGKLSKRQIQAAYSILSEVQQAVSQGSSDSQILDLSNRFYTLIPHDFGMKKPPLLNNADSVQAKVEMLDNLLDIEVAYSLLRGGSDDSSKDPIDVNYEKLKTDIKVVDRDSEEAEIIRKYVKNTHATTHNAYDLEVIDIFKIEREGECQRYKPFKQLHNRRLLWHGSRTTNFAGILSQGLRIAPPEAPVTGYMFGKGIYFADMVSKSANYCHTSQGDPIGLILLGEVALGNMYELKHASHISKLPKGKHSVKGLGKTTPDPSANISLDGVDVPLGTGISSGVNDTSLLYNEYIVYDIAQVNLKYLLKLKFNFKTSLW
T2 sequence (Q9H2K2 873-1166): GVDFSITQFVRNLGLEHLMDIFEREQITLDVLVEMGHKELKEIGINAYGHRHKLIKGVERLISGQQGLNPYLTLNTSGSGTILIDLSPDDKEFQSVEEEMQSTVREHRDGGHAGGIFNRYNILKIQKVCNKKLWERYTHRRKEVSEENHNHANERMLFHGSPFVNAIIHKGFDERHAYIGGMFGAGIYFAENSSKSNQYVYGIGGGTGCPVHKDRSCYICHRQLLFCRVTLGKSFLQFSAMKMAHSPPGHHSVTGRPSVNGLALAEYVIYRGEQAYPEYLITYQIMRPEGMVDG

| Compound | IC50 [1] [µM] | IC50 [2] [µM] |
| --- | --- | --- |
| CC(C)(C)c1ccc(-c2cn3cccc3c(=O)[nH]2)cc1 [Compound A11, 3-(4-tert-butyl-phenyl)-2H-pyrrolo[1,2-a]pyrazin-1-one] | 3 to 50 | < 0.3 |
| Cc1ccc(-c2cn3cccc3c(=O)[nH]2)cc1 [Compound A12, 3-p-tolyl-2H-pyrrolo[1,2-a]pyrazin-1-one] | 0.3 to 3 | < 0.3 |
| Cn1cc(-c2ccc(-c3cn4cccc4c(=O)[nH]3)cc2)cn1 [Compound A25, 3-[4-(1-methyl-1H-pyrazol-4-yl)-phenyl]-2H-pyrrolo[1,2-a]pyrazin-1-one] | 3 to 50 | < 0.3 |
| CC(C)(O)c1ccc(-c2cn3cccc3c(=O)[nH]2)cc1 [Compound A29, 3-[4-(1-hydroxy-1-methyl-ethyl)-phenyl]-2H-pyrrolo[1,2-a]pyrazin-1-one] | 0.3 to 3 | < 0.3 |
| CC(C)(C)c1ccc(-c2cn3cc(F)cc3c(=O)[nH]2)cc1 [Compound A35, 3-(4-tert-butyl-phenyl)-7-fluoro-2H-pyrrolo[1,2-a]pyrazin-1-one] | 3 to 50 | < 0.3 |
| Cc1cc2c(=O)[nH]c(-c3ccc(C(C)(C)O)cc3)cn2n1 [Compound A46, 6-[4-(1-hydroxy-1-methyl-ethyl)phenyl]-2-methyl-5H-pyrazolo[1,5-a]pyrazin-4-one] | 0.3 to 3 | < 0.3 |
| Cc1cc2c(=O)[nH]c(-c3ccc(C(C)(C)O)cc3)cn2c1 [Compound A56, 3-[4-(1-hydroxy-1-methyl-ethyl)-phenyl]-7-methyl-2H-pyrrolo[1,2-a]pyrazin-1-one] | 0.3 to 3 | < 0.3 |
| CC(C)(O)c1ccc(-c2cn3cc(F)cc3c(=O)[nH]2)cc1 [Compound A59, 7-fluoro-3-[4-(1-hydroxy-1-methyl-ethyl)-phenyl]-2H-pyrrolo[1,2-a]pyrazin-1-one] | 0.3 to 3 | < 0.3 |
| CC(C)(O)c1ccc(-c2cn3cc(Cl)cc3c(=O)[nH]2)cc1 [Compound A60, 7-chloro-3-[4-(1-hydroxy-1-methyl-ethyl)-phenyl]-2H-pyrrolo[1,2-a]pyrazin-1-one] | 0.3 to 3 | < 0.3 |
| CCC(O)(CC)c1ccc(-c2cn3cc(F)cc3c(=O)[nH]2)cc1 [Compound A61, 3-[4-(1-ethyl-1-hydroxy-propyl)-phenyl]-7-fluoro-2H-pyrrolo[1,2-a]pyrazin-1-one] | 0.3 to 3 | < 0.3 |
| CC(C)(F)c1ccc(-c2cn3cc(F)cc3c(=O)[nH]2)cc1 [Compound A63, 7-fluoro-3-[4-(1-fluoro-1-methyl-ethyl)-phenyl]-2H-pyrrolo[1,2-a]pyrazin-1-one] | 0.3 to 3 | < 0.3 |
| CC(C)(OCCO)c1ccc(-c2cn3cc(F)cc3c(=O)[nH]2)cc1 [Compound A70, 7-fluoro-3-{4-[1-(2-hydroxy-ethoxy)-1-methyl-ethyl]-phenyl}-2H-pyrrolo[1,2-a]pyrazin-1-one] | 0.3 to 3 | < 0.3 |
| COCCOC(C)(C)c1ccc(-c2cn3cc(F)cc3c(=O)[nH]2)cc1 [Compound A71, 7-fluoro-3-{4-[1-(2-methoxy-ethoxy)-1-methyl-ethyl]-phenyl}-2H-pyrrolo[1,2-a]pyrazin-1-one] | 3 to 50 | < 0.3 |
| CC(C)(N)c1ccc(-c2cn3cc(F)cc3c(=O)[nH]2)cc1 [Compound A72, 3-[4-(1-amino-1-methyl-ethyl)-phenyl]-7-fluoro-2H-pyrrolo[1,2-a]pyrazin-1-one] | < 0.3 | < 0.3 |
| CC1(c2ccc(-c3cn4cc(F)cc4c(=O)[nH]3)cc2)CCCO1 (stereo not shown) [Compound A73, 7-fluoro-3-[4-(2-methyl-tetrahydro-furan-2-yl)-phenyl]-2H-pyrrolo[1,2-a]pyrazin-1-one] | 0.3 to 3 | < 0.3 |
| O=c1[nH]c(-c2ccc(C3CCNCC3)cc2)cn2cccc12 [Compound A75, 3-(4-piperidin-4-yl-phenyl)-2H-pyrrolo[1,2-a]pyrazin-1-one] | 3 to 50 | < 0.3 |
| O=c1[nH]c(-c2ccc(C3CCNC3)cc2)cn2cccc12 (stereo not shown) [Compound A76, 3-(4-Pyrrolidin-3-yl-phenyl)-2H-pyrrolo[1,2-a]pyrazin-1-one] | 0.3 to 3 | < 0.3 |
| CN1CCC(c2ccc(-c3cn4cccc4c(=O)[nH]3)cc2)CC1 [Compound A79, 3-[4-(1-methyl-piperidin-4-yl)-phenyl]-2H-pyrrolo[1,2-a]pyrazin-1-one] | 3 to 50 | < 0.3 |
| CN1CCC(c2ccc(-c3cn4cccc4c(=O)[nH]3)cc2)C1 (stereo not shown) [Compound A80, 3-[4-(1-methyl-pyrrolidin-3-yl)-phenyl]-2H-pyrrolo[1,2-a]pyrazin-1-one] | 3 to 50 | < 0.3 |
| O=c1[nH]c(-c2ccc(C3(O)CCC3)cc2)cn2cccc12 [Compound A111] | 0.3 to 3 | < 0.3 |
